18 compounds from patent publication US8481456B2 (priority 2009, dated 2013) can be followed below.

Series [1] relates to larvae of the diamondback moth (Plutella xylostella). Put plainly: Plutella xylostella test. The note with it: 4 ppm a.i. Format: in vivo. How it is done:
Cabbage leaves (Brassica oleracea) are treated by being sprayed into the preparation of the active compound of the desired concentration and are infested with larvae of the diamondback moth (Plutella xylostella) as long as the leaves are still moist. After the specified period of time, the mortality in % is determined. 100% means that all the caterpillars have been killed; 0% means that none of the caterpillars have been killed.

The subject of series [2] is Phytophthora infestans. Put plainly: whole plant or invertebrate. Format: in vivo. The note with it: 3 days after the inoculation; for pest or weed control at 100 ppm / pest or weed control at 200 ppm: Phytophthora infestans, 72 h; for pest or weed control at 200 ppm: 200 ppm a.i.
Series [3] has as its system Pyrenophora teres. In words: Pyrenophora teres test (barley)/preventive. Format: in vivo. The following applies: 8 days after the inoculation.
Series [4] concerns larvae of the mustard beetle (Phaedon cochleariae). Put plainly: Phaedon cochleariae larvae test. Format: in vivo. As for the experimental part:
Cabbage leaves (Brassica oleracea) are treated by being sprayed into the preparation of the active compound of the desired concentration and are infested with larvae of the mustard beetle (Phaedon cochleariae) as long as the leaves are still moist. After the specified period of time, the mortality in % is determined. 100% means that all the beetle larvae have been killed; 0% means that none of the beetle larvae have been killed.

The subject of series [5] is Alternaria solani. Put plainly: Alternaria test (tomatoes)/preventive. It counts as in vivo. The note with it: for pest or weed control at 100 ppm / pest or weed control at 200 ppm: Alternaria solani, 72 h, read-out: Efficacy in %, found.
Series [6] has as its system apple scab (Venturia inaequalis). Put plainly: Venturia test (apples)/preventive. The following applies: for pest or weed control at 100 ppm / pest or weed control at 200 ppm: Venturia inaequalis, 240 h, read-out: Efficacy in %, found; for Efficacy in %, found: Table L2, 10 days after the inoculation.
In series [7] the test system is Green peach aphid (Myzus persicae). In words: Myzus persicae test. It counts as in vivo. The following applies: for mortality at 0.8 ppm: 0.8 ppm a.i. How it is done: Cabbage leaves (Brassica oleracea) which are heavily infested by the Green peach aphid (Myzus persicae) are treated by being sprayed into the preparation of the active compound of the desired concentration. After the specified period of time, the mortality in % is determined. 100% means that all the aphids have been killed; 0% means that none of the aphids have been killed.

The subject of series [8] is Botrytis cinerea. In words: Botrytis test (beans)/preventive. The note with it: 2 days after the inoculation.
Series [9] deals with larvae of the fall army worm (Spodoptera frugiperda). In words: Spodoptera frugiperda test/seed application. The note with it: 0.25 mg a.i./seed, corn seed treatment. It counts as in vivo.
Procedure: 14 days after sowing the leaves were cut off and infested with larvae of the fall army worm (Spodoptera frugiperda). After the specitied period of time, the mortality in % is determined. 100% means that all the caterpillars have been killed; 0% means that none of the caterpillars have been killed.
For series [10], the system named is Fusarium nivale (var. majus). In words: Fusarium nivale (var. majus)-test (wheat)/preventive. The note with it: 1000 ppm a.i.; 5 days after the inoculation.
Series [11] deals with Septoria tritici. In words: Septoria tritici test (wheat)/preventive. It counts as in vivo. The note with it: 21 days after the inoculation.
The subject of series [12] is Fusarium graminearum. It counts as in vivo. The note with it: 1000 ppm a.i.; 5 days after the inoculation.
The mark [13] stands for this setting: 72 h, 4 ppm a.i., after 3 d, read-out: Mortality in % after 3 d, found.
Setting [14] is: read-out: Efficacy in %, found, Table I1, 100 ppm a.i.
[15] abbreviates: 72 h, read-out: Mortality in % after 3 d, found.
Where [16] appears, read: read-out: Efficacy in %, found, Table I2.
[17] abbreviates: read-out: Efficacy in %, found, Table I1.

Where two headings read alike, the source gives them in different places.

For spinosad [(5.2)], in [1] (after 1 d), the “Mortality in % after 1 d, found” value turned out to be 70%. Also, the “Efficacy in %, found” value in [2] (Table I2, 100 ppm a.i.) was determined as 10%; in series [3] (Table J1, 1000 ppm a.i.), 0%.
On to `CN/C(=N\[N+](=O)[O-])NCc1cnc(Cl)s1` [(4A.2), clothianidin], for which the mortality at 4 ppm in [4] (setting [13]) worked out at 0%. For the same compound, the results for the pest or weed control at 100 ppm in [5], in series [2] (setting [14]) and in series [6] were 49%, 30% and 0%, respectively. In addition, the pest or weed control at 200 ppm in series [5] turned out to be 45%; in [6], 0%. Moreover, the “Efficacy in %, found” value in series [3] (Table J2, 500 ppm a.i.) came out at 0%.
As to `CNC(=O)c1cc(Cl)cc(C)c1NC(=O)c1cc(Br)nn1-c1ncccc1Cl` [(26.1), chloranthraniliprole (rynaxypyr)], the mortality at 0.8 ppm in [7] (48 h, after 2 d, read-out: Mortality in % after 2 d, found) is 40%. The mortality at 4 ppm in [1] (Plutella xylostella, 24 h, after 1 d, read-out: Mortality in % after 1 d, found) was 25%. Further, the pest or weed control at 100 ppm was determined as 37% in series [5], 32% in [2] (setting [14]) and 0% in [6]. Moreover, the pest or weed control at 200 ppm in series [5] was 37%. Besides, the “Efficacy in %, found” value in series [3] (Table J2, 500 ppm a.i.) was determined as 14%; in series [8] (100 ppm a.i.) it was 0%; in series [8] (200 ppm a.i.) it was 0%.
As to abamectin [(6.1)], in [1] (after 1 d), the “Mortality in % after 1 d, found” value was 75%. Besides, the “Efficacy in % 3 d after infestation, found” value in series [9] (3 d after infestation) is 4.8%. In addition, the “Efficacy in %, found” value in [5] (Table E2, 100 ppm a.i., 3 days after the inoculation) is 32%; in [6] (100 ppm a.i.), 53%; in [6] (200 ppm a.i.), 51%.
With `CNC(=O)Oc1cc(C)c(SC)c(C)c1` [(1A.15), methiocarb], the mortality at 20 ppm in series [4] (setting [15]) was found to be 35%. Moreover, the pest or weed control at 100 ppm in series [5] came to 45%; in series [2] (read-out: Efficacy in %, found, Table I2, 100 ppm a.i.), 16%; in series [6] it was 4%. Further, in series [5], the pest or weed control at 200 ppm amounted to 47%.
As for `CC1(C)[C@H](C=C(Cl)Cl)[C@H]1C(=O)OCc1c(F)c(F)cc(F)c1F` [(3A.46), transfluthrin], in series [7] (setting [13]), the mortality at 4 ppm was found to be 0%.
For `CC(c1ccc(C(F)(F)F)nc1)S(C)(=O)=NC#N` (stereo not shown) [(27.27), sulfoxaflor], in [7] (24 h, after 1 d, read-out: Mortality in % after 1 d, found), the mortality at 0.8 ppm came to 20%. Also, the pest or weed control at 100 ppm in series [5] and in series [6] was 0% in each case. In addition, the pest or weed control at 200 ppm in series [5] is 51%. Further, the “Efficacy in %, found” value in [8] (200 ppm a.i.) is recorded as 0%.
Turning to `N#C/N=C1\SCCN1Cc1ccc(Cl)nc1` [(4A.6), thiacloprid], in series [7] (4 ppm a.i., after 4 h, read-out: Mortality in % after 4 h, found), the mortality at 4 ppm is 20%. For the same compound, the pest or weed control at 100 ppm in series [5] was found to be 13%; in [2] (setting [14]), 16%. Further, the pest or weed control at 200 ppm in series [6] was 4%. Besides, in [10], the “Efficacy in %, found” value came to 0%.
For `O=C1C=C(N(Cc2ccc(Cl)nc2)CC(F)F)CO1` [(27.16), 4-{[(6-chloropyridin-3-yl)methyl](2,2-difluoroethyl)amino}furan-2(5H)-one], the pest or weed control at 200 ppm in [2] (setting [16]) stood at 30%; in series [6] it was 8%. In addition, in [11] (1000 ppm a.i.), the “Efficacy in %, found” value worked out at 0%.
Regarding `CC1(C)C(C=C(Cl)Cl)C1C(=O)OC(C#N)c1ccc(F)c(Oc2ccccc2)c1` (stereo not shown) [(3A.10), cyfluthrin], the “Efficacy in %, found” value in series [3] (Table J2, 500 ppm a.i.) is 0%.
Regarding `N#Cc1nn(-c2c(Cl)cc(C(F)(F)F)cc2Cl)c(N)c1[S+]([O-])C(F)(F)F` (stereo not shown) [(2B.2), fipronil], the pest or weed control at 100 ppm in series [5] came to 28%; in [2] (setting [14]), 30%. The values for the pest or weed control at 200 ppm in [5], in series [2] (setting [17]) and in series [6] were 44%, 47% and 8%, respectively. In addition, the “Efficacy in %, found” value in series [3] (Table J2, 500 ppm a.i.) is 0%.
Turning to `O=[N+]([O-])NC1=NCCN1Cc1ccc(Cl)nc1` [(4A.4), imidacloprid], the mortality at 20 ppm in [4] (24 h, 20 ppm a.i., after 1 d, read-out: Mortality in % after 1 d, found) amounted to 0%. Moreover, in series [9] (1 d after infestation), the “Efficacy in % 1 d after infestation, found” value is on record as 0%. In [5], the pest or weed control at 100 ppm was 13% and the pest or weed control at 200 ppm amounted to 30%. In addition, the “Efficacy in %, found” value in series [12] is 0%.
As to `CS/C(C)=N\OC(=O)N(C)SN(C)C(=O)O/N=C(\C)SC` [(1A.21), thiodicarb], in [5], the pest or weed control at 200 ppm is 52%. Moreover, the “Efficacy in %, found” value in series [10] is listed as 0%.
In the case of `CNC(=O)c1cc(C#N)cc(C)c1NC(=O)c1cc(Br)nn1-c1ncccc1Cl` [(26.2), cyantraniliprole (cyazypyr)], the mortality at 4 ppm in series [7] (48 h, 4 ppm a.i., after 2 d, read-out: Mortality in % after 2 d, found) stood at 50%. Also, the mortality at 0.8 ppm in series [4] (72 h, 0.8 ppm a.i., after 3 d, read-out: Mortality in % after 3 d, found) came out at 25%. The pest or weed control at 100 ppm in series [5] came out at 28%; in [2] (setting [14]), 30%; in [6] it was 0%. For the same compound, the “Efficacy in %, found” value in series [8] (100 ppm a.i.) and in series [8] (200 ppm a.i.) was 0% each time. Besides, the pest or weed control at 200 ppm in [6] was found to be 18%.
For the compound `Cc1c(F)c(F)c(COC(=O)[C@@H]2[C@H](/C=C(\Cl)C(F)(F)F)C2(C)C)c(F)c1F` (racemic) [(3A.43), tefluthrin], in series [2] (setting [16]), the pest or weed control at 200 ppm is 0%. Moreover, the “Efficacy in %, found” value in series [11] (500 ppm a.i.) stood at 0%. Further, the pest or weed control at 100 ppm in [6] stood at 23%.
In the case of `CN1COCN(Cc2cnc(Cl)s2)/C1=N\[N+](=O)[O-]` [(4A.7), thiamethoxam], the pest or weed control at 200 ppm was determined as 64% in series [5] (Table E1, 200 ppm a.i., 3 days after the inoculation) and 25% in series [6]. Also, the pest or weed control at 100 ppm was 30% in series [2] (setting [14]) and 18% in series [6]. Moreover, the “Efficacy in %, found” value in series [3] (Table J1, 1000 ppm a.i.) came to 0%; in series [8] (100 ppm a.i.), 0%.
As to `CC1(C)C(C=C(Cl)Cl)C1C(=O)OC(C#N)c1ccc(F)c(Oc2ccccc2)c1` (stereo not drawn) [(3A.11), β-cyfluthrin], the “Mortality in % after 2 d, found” value in series [1] (after 2 d) stood at 40%.
As for `C/C(=N\C#N)N(C)Cc1ccc(Cl)nc1` [(4A.1), acetamiprid], the mortality at 4 ppm in [7] (24 h, read-out: Mortality in % after 1 d, found) turned out to be 10%; in [4] (setting [15]), 0%. In addition, in series [2] (setting [17]), the pest or weed control at 200 ppm was determined as 27%. Further, the “Efficacy in %, found” value in series [8] (100 ppm a.i.) was determined as 0%.

One may read the mortality as the share of the test organisms that died.
